# Results as given in patent US10668040B2, “Treatment of urea cycle disorders in neonates and infants” (Horizon Therapeutics, LLC, priority 2017, dated 2020).
# Tests used:
# Type in all cases: in vivo, human
# [1] = HPN-100-009 (Example 2): plasma PBA, PAA, PAGN PK on first full day of RAVICTI dosing; conditions: Age 2 Months to <2 Years, mean (SD)
# Source text: Plasma Phenylbutyrate/Phenylbutyric Acid (PB A) 1) Maximum Plasma Concentration (Cmax); 2) Minimum Plasma Concentration (Cmin); 3) Area Under the Curve from Time Zero to the Time of Last Quantifiable Concentration (AUC[0-Last]); and 4) Time to Cmax (Tmax) on the First Full Day of RAVICTI® Dosing.
# (§1) End point description. Pharmacokinetic (PK) Evaluable Population: all subjects from the safety population with individual concentration-time profiles that allow computation of meaningful PK parameter values. End point timeframe: Hour 0 and between 4 and 6 hours, 8 hours, and between 12 and 24 hours after the first dose of the day on Day 1 for stable subjects and on Day 2 for subjects in HAC.
# Plasma Phenylacetate/Phenylacetic Acid (PAA) 1) Maximum Plasma Concentration (Cmax); 2) Minimum Plasma Concentration (Cmin); 3) Area Under the Curve from Time Zero to the Time of Last Quantifiable Concentration (AUC[0-Last]); and 4) Time to Cmax (Tmax) on the First Full Day of RAVICTI® Dosing.
# as §1, with “PK” for “Pharmacokinetic (PK)”
# Plasma Phenylacetylglutamine (PAGN) 1) Maximum Plasma Concentration (Cmax); 2) Minimum Plasma Concentration (Cmin); 3) Area Under the Curve from Time Zero to the Time of Last Quantifiable Concentration (AUC[0-Last]); and 4) Time to Cmax (Tmax) on the First Full Day of RAVICTI® Dosing.
# [2] = test system: UCD patients; assay: HPN-100-009 (Example 2): rate of hyperammonemic crises (HACs); conditions: Age 2 Months to <2 Years
# Source text: HPN-100-009 is an open-label study consisting of a transition period to HPN-100, followed by a safety extension period for at least 6 months and up to 24 months of treatment with HPN-100, depending on age at enrollment. It is designed to capture information important for evaluating safety, pharmacokinetics and efficacy in young children. Subjects eligible for this study included patients ranging from newborn to <2 years of age with either a diagnosed or clinically suspected UCD. Ten infant and toddler (28 days to 23 months) subjects were enrolled in this study.
# Subjects aged 2 months to <2 years received RAVICTI® Oral Liquid administered just prior to breastfeeding or intake of formula or food. The recommended dosing regimen is 3-6 times per day depending on feeding schedule and at the discretion of the Investigator. The starting dose of RAVICTI® was based on UCD status (newly diagnosed, or already stable on sodium phenylbutyrate [NaPBA] and/or sodium benzoate [NaBz]) and whether a hyperammonemic crisis is present. Subsequently, the dose was adjusted based on clinical and/or ammonia results, according to an algorithm provided in the protocol.
# Rate of Hyperammonemic Crises (HACs) During the First 6 Months on RAVICTI®.
# End point description. A HAC was defined having signs and symptoms consistent with hyperammonemia (such as but not limited to frequent vomiting, nausea, headache, lethargy, irritability, combativeness, somnolence) associated with high blood ammonia and requiring medical intervention. Rate of HACs prior to enrollment was calculated as sum of (number of HAC)/sum of (subject age in days at the time of enrollment or 365 days, whichever was less) across all subjects in the corresponding group. Rate of HACs per 6 months during the safety extension was calculated as sum of (number of HAC)/sum of (days during first 6 months starting on Day 8 or number days on RAVICTI®, whichever was less) across all subjects in the corresponding group. Safety population: all enrolled subjects who received any amount of study medication. […]
# [3] = test system: UCD patients; assay: HPN-100-009 (Example 2): treatment-emergent, serious and non-serious adverse events; conditions: Age 2 Months to <2 Years
# Source text: Number of Subjects with Treatment-Emergent Adverse Events (TEAEs), Serious TEAEs, Deaths, and Discontinuations Due to TEAEs.
# End point description. An adverse event (AE) was any untoward medical occurrence, whether or not the event is considered related to the study drug. […] TEAEs were defined as AEs with an onset date on or after the first dose of study medication until study discontinuation. The Investigator assessed the causal relationship of each TEAE to the study drug as not related, possibly related, or probably related. Safety population: all enrolled subjects who received any amount of study medication. End point timeframe: up to 370 days.
# Adverse Events Information.
# Timeframe for reporting adverse events: From first dose of study treatment up to 370 days (data cutoff); median (full range) duration of treatment was 4.68 (0.2 to 10.9) months. Adverse event reporting additional description: TEAEs (defined as AEs with an onset date on or after the first dose of study medication until study discontinuation) are presented.
compound,measurement,setting,value
"O=C(CCCc1ccccc1)OCC(COC(=O)CCCc1ccccc1)OC(=O)CCCc1ccccc1 [RAVICTI, benzenebutanoic acid, 1′,1″-(1,2,3-propanetriyl) ester]",Plasma PAA AUC[0-last],[1],246.126 (±238.547) (μg * hr/mL)
same,Plasma PAA Cmax,[1],36.52 (±31.784) (μg/mL)
same,Plasma PAA Cmin,[1],4.197 (±6.434) (μg/mL)
same,Plasma PAA Tmax,[1],7.422 (±7.351) (hrs)
same,Plasma PAGN AUC[0-last],[1],583.835 (±285.241) (μg * hr/mL)
same,Plasma PAGN Cmax,[1],62.45 (±27.281) (μg/mL)
same,Plasma PAGN Cmin,[1],20.62 (±14.529) (μg/mL)
same,Plasma PAGN Tmax,[1],6.573 (±7.181) (hrs)
same,Plasma PBA AUC[0-last],[1],280.936 (±293.553) (μg * hr/mL)
same,Plasma PBA Cmax,[1],42.44 (±36.715) (μg/mL)
same,Plasma PBA Cmin,[1],1.697 (±2.254) (μg/mL)
same,Plasma PBA Tmax,[1],8.383 (±4.564) (hrs)
same,Rate of HACs During Safety Extension,"[2]; Day 8 up to Month 6, n = 9",0.006
same,Rate of HACs During Transition (Days 1-7),[2]; n = 10,0
same,Rate of HACs Prior to Enrollment,"[2]; up to 365 days prior to enrollment, n = 10",0.11
same,Non-serious AE Anaemia: Occurrences (All),[3],1
same,Non-serious AE Apnoeic Attack: Occurrences (All),[3],1
same,Non-serious AE Cough: Occurrences (All),[3],1
same,Non-serious AE Deep Vein Thrombosis: Occurrences (All),[3],1
same,Non-serious AE Diarrhoea: Occurrences (All),[3],1
same,Non-serious AE Gross Motor Delay: Occurrences (All),[3],1
same,Non-serious AE Hypophagia: Occurrences (All),[3],1
same,Non-serious AE Infections (Gastroenteritis): Occurrences (All),[3],1
same,Non-serious AE Infections (Nasopharyngitis): Occurrences (All),[3],1
same,Non-serious AE Infections (Upper Respiratory Tract): Occurrences (All),[3],4
same,Non-serious AE Infections (Urinary Tract): Occurrences (All),[3],1
same,Non-serious AE Infections (Viral): Occurrences (All),[3],1
same,Non-serious AE Metabolic Acidosis: Occurrences (All),[3],1
same,Non-serious AE Nail Ridging: Occurrences (All),[3],1
same,Non-serious AE Rash: Occurrences (All),[3],2
same,Non-serious AE Rhinorrhoea: Occurrences (All),[3],1
same,Non-serious AE Stoma Site Reaction: Occurrences (All),[3],1
same,Non-serious AE Teething: Occurrences (All),[3],1
same,Non-serious AE Tibia Fracture: Occurrences (All),[3],1
same,Non-serious AE Vesicoureteric Reflux: Occurrences (All),[3],1
same,Non-serious AE Vomiting: Occurrences (All),[3],3
same,Number of Deaths (All Causes),[3],1
same,Serious AE Apnoeic Attack: Deaths Causally Related to Treatment/All,[3],0/0
same,Serious AE Apnoeic Attack: Occurrences Causally Related to Treatment/All,[3],0/2
same,Serious AE Hyperammonaemia: Deaths Causally Related to Treatment/All,[3],0/0
same,Serious AE Hyperammonaemia: Occurrences Causally Related to Treatment/All,[3],0/8
same,Serious AE Infections (Croup): Deaths Causally Related to Treatment/All,[3],0/0
same,Serious AE Infections (Croup): Occurrences Causally Related to Treatment/All,[3],0/1
same,Serious AE Infections (Gastroenteritis): Deaths Causally Related to Treatment/All,[3],0/0
same,Serious AE Infections (Gastroenteritis): Occurrences Causally Related to Treatment/All,[3],0/1
same,Serious AE Infections (Urinary Tract): Deaths Causally Related to Treatment/All,[3],0/0
same,Serious AE Infections (Urinary Tract): Occurrences Causally Related to Treatment/All,[3],0/1
same,Serious AE Infections (Viral): Deaths Causally Related to Treatment/All,[3],0/0
same,Serious AE Infections (Viral): Occurrences Causally Related to Treatment/All,[3],0/1
same,Serious AE Pneumatosis: Deaths Causally Related to Treatment/All,[3],0/1
same,Serious AE Pneumatosis: Occurrences Causally Related to Treatment/All,[3],0/1
same,Subjects with fatal outcome TEAE,"[3]; 10 analyzed, up to 370 days",1 Subjects
same,Subjects with ≥1 Related TEAE,"[3]; 10 analyzed, up to 370 days",4 Subjects
same,Subjects with ≥1 Serious Related TEAE,"[3]; 10 analyzed, up to 370 days",0 Subjects
same,Subjects with ≥1 Serious TEAE,"[3]; 10 analyzed, up to 370 days",6 Subjects
same,Subjects with ≥1 TEAE,"[3]; 10 analyzed, up to 370 days",10 Subjects
same,Subjects with ≥1 TEAE Leading to Study Discontinuation,"[3]; 10 analyzed, up to 370 days",1 Subjects
